According to PMC10620772, “Design, synthesis, and biological evaluation of new pyrimidine-5-carbonitrile derivatives as novel anti-cancer, dual EGFR^WT/COX-2 inhibitors with docking studies” (RSC Advances, 2023):

Columns and labels:
Assay type in all cases: cell-based, human
CCRF-CEM = experiment: NCI60 antitumor screening; details: 10 μM one-dose
UO-31 = experiment: NCI60 antitumor screening; details: 10 μM one-dose
NCI-H226 = experiment: NCI60 antitumor screening; details: 10 μM one-dose
NCI-H322M = experiment: NCI60 antitumor screening; details: 10 μM one-dose
EKVX = experiment: NCI60 antitumor screening; details: 10 μM one-dose
HT29 = experiment: NCI60 antitumor screening; details: 10 μM one-dose
KM12 = experiment: NCI60 antitumor screening; details: 10 μM one-dose
HCT-116 = experiment: NCI60 antitumor screening; details: 10 μM one-dose
DU-145 = experiment: NCI60 antitumor screening; details: 10 μM one-dose
LOX IMVI = experiment: NCI60 antitumor screening; details: 10 μM one-dose
SK-OV-3 = experiment: NCI60 antitumor screening; details: 10 μM one-dose
SN12C = experiment: NCI60 antitumor screening; details: 10 μM one-dose
SR = experiment: NCI60 antitumor screening; details: 10 μM one-dose
A549/ATCC = experiment: NCI60 antitumor screening; details: 10 μM one-dose
NCI60 cell lines panel = experiment: NCI60 antitumor screening, full panel; details: 10 μM one-dose, mean over NCI60
Method in brief: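 Percent growth inhibition (GI%) was recorded for each of the NCI60 lines, spanning leukaemia, lung, colon, CNS, melanoma, ovarian, renal, prostate and breast cancers, after exposure to compounds at one concentration, 10 μM.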

A498 = experiment: NCI60 antitumor screening; details: 10 μM one-dose
HL-60(TB) = experiment: NCI60 antitumor screening; details: 10 μM one-dose
MDA-MB-468 = experiment: NCI60 antitumor screening; details: 10 μM one-dose
T-47D = experiment: NCI60 antitumor screening; details: 10 μM one-dose
COLO 205 = experiment: NCI60 antitumor screening; details: 10 μM one-dose
RPMI-8226 = experiment: NCI60 antitumor screening; details: 10 μM one-dose
SW-620 = experiment: NCI60 antitumor screening; details: 10 μM one-dose
PC-3 = experiment: NCI60 antitumor screening; details: 10 μM one-dose
ACHN = experiment: NCI60 antitumor screening; details: 10 μM one-dose
SNB-75 = experiment: NCI60 antitumor screening; details: 10 μM one-dose
SF-268 = experiment: NCI60 antitumor screening; details: 10 μM one-dose
HCC-2998 = experiment: NCI60 antitumor screening; details: 10 μM one-dose
MDA-MB-231/ATCC = experiment: NCI60 antitumor screening; details: 10 μM one-dose
SF-539 = experiment: NCI60 antitumor screening; details: 10 μM one-dose
SNB-19 = experiment: NCI60 antitumor screening; details: 10 μM one-dose
TK-10 = experiment: NCI60 antitumor screening; details: 10 μM one-dose
OVCAR-8 = experiment: NCI60 antitumor screening; details: 10 μM one-dose
NCI/ADR-RES = experiment: NCI60 antitumor screening; details: 10 μM one-dose
BT-549 = experiment: NCI60 antitumor screening; details: 10 μM one-dose
SK-MEL-28 = experiment: NCI60 antitumor screening; details: 10 μM one-dose
MDA-MB-435 = experiment: NCI60 antitumor screening; details: 10 μM one-dose
K-562 = experiment: NCI60 antitumor screening; details: 10 μM one-dose
HOP-62 = experiment: NCI60 antitumor screening; details: 10 μM one-dose
NCI-H23 = experiment: NCI60 antitumor screening; details: 10 μM one-dose
NCI-H460 = experiment: NCI60 antitumor screening; details: 10 μM one-dose
U251 = experiment: NCI60 antitumor screening; details: 10 μM one-dose
HS 578T = experiment: NCI60 antitumor screening; details: 10 μM one-dose
UACC-62 = experiment: NCI60 antitumor screening; details: 10 μM one-dose
M14 = experiment: NCI60 antitumor screening; details: 10 μM one-dose
CAKI-1 = experiment: NCI60 antitumor screening; details: 10 μM one-dose
HOP-92 = experiment: NCI60 antitumor screening; details: 10 μM one-dose
MCF7 = experiment: NCI60 antitumor screening; details: 10 μM one-dose
MOLT-4 = experiment: NCI60 antitumor screening; details: 10 μM one-dose
UACC-257 = experiment: NCI60 antitumor screening; details: 10 μM one-dose
RXF 393 = experiment: NCI60 antitumor screening; details: 10 μM one-dose
HCT-15 = experiment: NCI60 antitumor screening; details: 10 μM one-dose
IGROV1 = experiment: NCI60 antitumor screening; details: 10 μM one-dose
OVCAR-5 = experiment: NCI60 antitumor screening; details: 10 μM one-dose
786–0 = experiment: NCI60 antitumor screening; details: 10 μM one-dose
NCI-H522 = experiment: NCI60 antitumor screening; details: 10 μM one-dose
OVCAR-4 = experiment: NCI60 antitumor screening; details: 10 μM one-dose
SK-MEL-2 = experiment: NCI60 antitumor screening; details: 10 μM one-dose
OVCAR-3 = experiment: NCI60 antitumor screening; details: 10 μM one-dose
SF-295 = experiment: NCI60 antitumor screening; details: 10 μM one-dose
SK-MEL-5 = experiment: NCI60 antitumor screening; details: 10 μM one-dose
MALME-3M = experiment: NCI60 antitumor screening; details: 10 μM one-dose

In the case of `Cc1ccc(CSc2nc(-c3ccc(F)cc3)c(C#N)c(=O)[nH]2)cc1` [2d, 4-(4-Fluorophenyl)-2-((4-methylbenzyl)thio)-6-oxo-1,6-dihydropyrimidine-5-carbonitrile], the GI% (CCRF-CEM) was “— (GI% < 10)”, the GI% (UO-31) was “— (GI% < 10)” and the GI% (NCI-H226) was “— (GI% < 10)”. The GI% (NCI-H322M) was “— (GI% < 10)”, the GI% (EKVX) was “— (GI% < 10)” and the GI% (HT29) was 10.72%. The GI% (KM12) was “— (GI% < 10)”, the GI% (HCT-116) was “— (GI% < 10)” and the GI% (DU-145) was “— (GI% < 10)”. For the same compound, the GI% (LOX IMVI) was “— (GI% < 10)”, the GI% (SK-OV-3) was “— (GI% < 10)” and the GI% (SN12C) was “— (GI% < 10)”. For the same compound, the GI% (SR) was “— (GI% < 10)”, the GI% (A549/ATCC) was 10.16% and the “Mean GI%” value (NCI60 cell lines panel) was “— (GI% < 10)”. The GI% (A498) was “— (GI% < 10)”, the GI% (HL-60(TB)) was 43.38% and the GI% (MDA-MB-468) was “— (GI% < 10)”. The GI% (T-47D) was 13.50%, the GI% (COLO 205) was “— (GI% < 10)” and the GI% (RPMI-8226) was “— (GI% < 10)”. For the same compound, the GI% (SW-620) was “— (GI% < 10)”, the GI% (PC-3) was “— (GI% < 10)” and the GI% (ACHN) was “— (GI% < 10)”. The GI% (SNB-75) was “— (GI% < 10)”, the GI% (SF-268) was “— (GI% < 10)” and the GI% (HCC-2998) was “— (GI% < 10)”. For the same compound, the GI% (MDA-MB-231/ATCC) was “— (GI% < 10)”, the GI% (SF-539) was “— (GI% < 10)” and the GI% (SNB-19) was “— (GI% < 10)”. The GI% (TK-10) was “— (GI% < 10)”, the GI% (OVCAR-8) was “— (GI% < 10)” and the GI% (NCI/ADR-RES) was “— (GI% < 10)”. The GI% (BT-549) was 15.75%, the GI% (SK-MEL-28) was “— (GI% < 10)” and the GI% (MDA-MB-435) was “— (GI% < 10)”. The GI% (K-562) was “— (GI% < 10)”, the GI% (HOP-62) was “— (GI% < 10)” and the GI% (NCI-H23) was “— (GI% < 10)”. The GI% (NCI-H460) was “— (GI% < 10)”, the GI% (U251) was “— (GI% < 10)” and the GI% (HS 578T) was “— (GI% < 10)”. The GI% (UACC-62) was “— (GI% < 10)”, the GI% (M14) was “— (GI% < 10)” and the GI% (CAKI-1) was “— (GI% < 10)”. For the same compound, the GI% (HOP-92) was “— (GI% < 10)”, the GI% (MCF7) was 10.82% and the GI% (MOLT-4) was 11.64%. The GI% (UACC-257) was “— (GI% < 10)”, the GI% (RXF 393) was “— (GI% < 10)” and the GI% (HCT-15) was 15.77%. The GI% (IGROV1) was “— (GI% < 10)”, the GI% (OVCAR-5) was “— (GI% < 10)” and the GI% (786–0) was “— (GI% < 10)”. For the same compound, the GI% (NCI-H522) was 12.91%, the GI% (OVCAR-4) was “— (GI% < 10)” and the GI% (SK-MEL-2) was “— (GI% < 10)”. The GI% (OVCAR-3) was “— (GI% < 10)”, the GI% (SF-295) was “— (GI% < 10)” and the GI% (SK-MEL-5) was “— (GI% < 10)”. For the same compound, the GI% (MALME-3M) was “— (GI% < 10)”.
`N#Cc1c(Cl)nc(SCc2ccccc2)nc1-c1ccc(F)cc1` [3a, 2-(Benzylthio)-4-chloro-6-(4-fluorophenyl) pyrimidine-5-carbonitrile] was tested, and the GI% (CCRF-CEM) was “— (GI% < 10)”, the GI% (UO-31) was 14.25% and the GI% (NCI-H226) was 18.61%. For the same compound, the GI% (NCI-H322M) was “— (GI% < 10)”, the GI% (EKVX) was “— (GI% < 10)” and the GI% (HT29) was “— (GI% < 10)”. For the same compound, the GI% (KM12) was “— (GI% < 10)”, the GI% (HCT-116) was 22.79% and the GI% (DU-145) was “— (GI% < 10)”. For the same compound, the GI% (LOX IMVI) was “— (GI% < 10)”, the GI% (SK-OV-3) was “— (GI% < 10)” and the GI% (SN12C) was “— (GI% < 10)”. The GI% (SR) was “— (GI% < 10)”, the GI% (A549/ATCC) was 16.44% and the “Mean GI%” value (NCI60 cell lines panel) was “— (GI% < 10)”. For the same compound, the GI% (A498) was “— (GI% < 10)”, the GI% (HL-60(TB)) was 44.03% and the GI% (MDA-MB-468) was “— (GI% < 10)”. For the same compound, the GI% (T-47D) was 10.38%, the GI% (COLO 205) was “— (GI% < 10)” and the GI% (RPMI-8226) was “— (GI% < 10)”. The GI% (SW-620) was “— (GI% < 10)”, the GI% (PC-3) was “— (GI% < 10)” and the GI% (ACHN) was 45.51%. For the same compound, the GI% (SNB-75) was “— (GI% < 10)”, the GI% (SF-268) was 21.56% and the GI% (HCC-2998) was “— (GI% < 10)”. The GI% (MDA-MB-231/ATCC) was 21.72%, the GI% (SF-539) was 24.06% and the GI% (SNB-19) was 16.70%. The GI% (TK-10) was “— (GI% < 10)”, the GI% (OVCAR-8) was 27.14% and the GI% (NCI/ADR-RES) was 20.64%. For the same compound, the GI% (BT-549) was 11.73%, the GI% (SK-MEL-28) was “— (GI% < 10)” and the GI% (MDA-MB-435) was “— (GI% < 10)”. For the same compound, the GI% (K-562) was 11.78%, the GI% (HOP-62) was 12.77% and the GI% (NCI-H23) was “— (GI% < 10)”. The GI% (NCI-H460) was “— (GI% < 10)”, the GI% (U251) was 39.15% and the GI% (HS 578T) was 16.76%. The GI% (UACC-62) was “— (GI% < 10)”, the GI% (M14) was “— (GI% < 10)” and the GI% (CAKI-1) was 21.66%. For the same compound, the GI% (HOP-92) was 14.74%, the GI% (MCF7) was “— (GI% < 10)” and the GI% (MOLT-4) was “— (GI% < 10)”. For the same compound, the GI% (UACC-257) was “— (GI% < 10)”, the GI% (RXF 393) was 19.19% and the GI% (HCT-15) was “— (GI% < 10)”. For the same compound, the GI% (IGROV1) was “— (GI% < 10)”, the GI% (OVCAR-5) was “— (GI% < 10)” and the GI% (786–0) was 38.26%. For the same compound, the GI% (NCI-H522) was 16.01%, the GI% (OVCAR-4) was 49.74% and the GI% (SK-MEL-2) was “— (GI% < 10)”. The GI% (OVCAR-3) was “— (GI% < 10)”, the GI% (SF-295) was 27.87% and the GI% (SK-MEL-5) was “— (GI% < 10)”. The GI% (MALME-3M) was “— (GI% < 10)”.
